#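 Following 48 hours of exposure in 96-well plates, responses at five concentrations were used to interpolate endpoints linearly. The concentration for 50% growth inhibition is given as GI50.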 The source made the active and inactive calls. No stated cut-off is given here; in the data, active = GI50 up to about 1.1 µM and inactive = higher.
# Columns and labels:
# Assay in all cases: NCI-60 cell line screen, 48 h
# [1] = system: UO-31
# [2] = system: 786-0
# [3] = system: HOP-92
# [4] = system: SNB-19
# [5] = system: HT-29
# [6] = system: HCT-116
# [7] = system: MDA-MB-435
# [8] = system: SK-MEL-28
# [9] = system: IGROV-1
# [10] = system: OVCAR-3
# [11] = system: SR
# [12] = system: BT-549
# [13] = system: Hs-578T
# [14] = system: PC-3
# [15] = system: Malme-3M
# [16] = system: SF-295
# [17] = system: SW-620
# [18] = system: COLO 205
# [19] = system: HCC 2998
SMILES,GI50 [1],GI50 [2],GI50 [3],GI50 [4],GI50 [5],GI50 [6],GI50 [7],GI50 [8],GI50 [9],GI50 [10],GI50 [11],GI50 [12],GI50 [13],GI50 [14],GI50 [15],GI50 [16],GI50 [17],GI50 [18],GI50 [19]
Cc1ccccc1NC(=O)CC(=O)NNC(Sc1ccccc1)c1cc(/N=N/c2ccc(Br)cc2)ccc1O (stereo not drawn),2.68 µM (inactive),0.551 µM (active),5.97 µM (inactive),9.48 µM (inactive),9.48 µM (inactive),0.308 µM (active),3.65 µM (inactive),6.52 µM (inactive),8.02 µM (inactive),0.368 µM (active),0.37 µM (active),3.72 µM (inactive),> 10 µM (inactive),0.877 µM (active),3.26 µM (inactive),2.75 µM (inactive),0.723 µM (active),3.1 µM (inactive),7.36 µM (inactive)
CCCCCCOc1ccc(NC2=C(Cl)C(=O)c3c(O)ccc(O)c3C2=O)cc1,2.2 µM (inactive),0.611 µM (active),2.72 µM (inactive),3.15 µM (inactive),2.11 µM (inactive),1.6 µM (inactive),1.72 µM (inactive),2 µM (inactive),,2.02 µM (inactive),1.94 µM (inactive),3.25 µM (inactive),3.35 µM (inactive),3.09 µM (inactive),1.83 µM (inactive),5.81 µM (inactive),2.2 µM (inactive),1.78 µM (inactive),1.8 µM (inactive)
Clc1ccc2oc(CCc3ccccc3)nc2c1,62.7 µM (inactive),53.8 µM (inactive),49.4 µM (inactive),91.6 µM (inactive),33.4 µM (inactive),36.2 µM (inactive),44.2 µM (inactive),72.3 µM (inactive),51.3 µM (inactive),21.3 µM (inactive),57.3 µM (inactive),49.5 µM (inactive),> 100 µM (inactive),48.6 µM (inactive),> 100 µM (inactive),33.6 µM (inactive),49.4 µM (inactive),41.7 µM (inactive),27.4 µM (inactive)
O=C1c2c(Br)sc(Br)c2[C@@H](O)[C@H]1O,17.1 µM (inactive),15.2 µM (inactive),19.2 µM (inactive),19.5 µM (inactive),19.1 µM (inactive),16.8 µM (inactive),10.7 µM (inactive),19.5 µM (inactive),18.2 µM (inactive),2.24 µM (inactive),1.96 µM (inactive),17.9 µM (inactive),23.1 µM (inactive),17.5 µM (inactive),20.4 µM (inactive),18.1 µM (inactive),3.28 µM (inactive),14.3 µM (inactive),20.1 µM (inactive)
CCN(CC)C(=S)SC1C(=O)NC(=O)NC1=O,> 100 µM (inactive),> 100 µM (inactive),> 100 µM (inactive),,> 100 µM (inactive),> 100 µM (inactive),> 100 µM (inactive),> 100 µM (inactive),> 100 µM (inactive),> 100 µM (inactive),> 100 µM (inactive),> 100 µM (inactive),> 100 µM (inactive),> 100 µM (inactive),> 100 µM (inactive),> 100 µM (inactive),> 100 µM (inactive),> 100 µM (inactive),> 100 µM (inactive)
